Results published in patent US11998585B2, “Methods and compositions for increasing the dose of a chemotherapeutic agent” (Stealth BioTherapeutics Inc., priority 2012, dated 2024).
Entries after “also recorded” stand apart in the source; their conditions may differ.

Test system: vincristine-induced hyperalgesia in rats
Assay: Vincristine-induced hyperalgesia in rats, electronic Von Frey test (paw-withdrawal threshold)
Assay type: in vivo, Sprague Dawley rats
Experimental: Female Sprague Dawley rats were divided randomly into 5 groups (n=10), according to Table 7. Groups 2-4 were administered Vincristine 0.10 mg/kg injected intravenously (i.v.) via tail vein followed by a bolus injection of 0.1 ml PBS vehicle, once daily for 14 days. Group 1 was administered 1 ml/kg PBS vehicle alone according to the same schedule. D-Arg-2′6′-dimethyltyrosine-Lys-Phe-NH2 10 mg/kg was administered subcutaneously (s.c.) 15 minutes prior to vincristine administration for the full 14-day period (Group 3), or for a period of two weeks beginning at day 15 (Group 4). Group 5 was administered Vincristine 0.10 mg/kg injected i.v. via tail vein, followed by a bolus injection of 0.1 ml PBS vehicle once daily for 28 days, and D-Arg-2′6′-dimethyltyrosine-Lys-Phe-NH2 10 mg/kg administered s.c. for a period of 14 days beginning at day 15.
Mechanical nociceptive threshold of paw-withdrawal was measured every two days using an electronic Von Frey test. Results are shown in FIG. 1 and FIG. 2 as means±SEM. One-way ANOVA with post-hoc test or t-test were used to assess the statistical significance, with p<0.05 is considered statistically significant. In FIG. 1, data for subjects receiving vincristine in the absence of simultaneous D-Arg-2′6′-dimethyltyrosine-Lys-Phe-NH2 (Groups 2, 4, 5) is shown collectively as “Group A.”

Row | Molecule | pain threshold after withdrawal of vincristine, no peptide (Group 2: vincristine 0.10 mg/kg i.v. 14 days + PBS vehicle, followed after day 14, FIG. 2) | pain threshold (mechanical nociceptive threshold of paw-withdrawal) under vincristine (vincristine 0.10 mg/kg i.v. daily for 14 days without peptide, vs vehicle-only control (Group 1)) | treatment of vincristine-induced hyperalgesia (FIG. 2, rats, Groups 4 and 5) | pain threshold (mechanical nociceptive threshold of paw-withdrawal), prevention (Group 3: peptide 10 mg/kg s.c. daily 15 min prior to vincristine 0.10 mg/kg i.v. for 14 days, vs vehicle-only control (Group 1), FIG. 1) | pain threshold (mechanical nociceptive threshold of paw-withdrawal), treatment after withdrawal of vincristine (Group 4: vincristine 0.10 mg/kg i.v. 14 days, then peptide 10 mg/kg s.c. daily for two weeks beginning at day 15, FIG. 2) | pain threshold (mechanical nociceptive threshold of paw-withdrawal), treatment while vincristine continues (Group 5: vincristine 0.10 mg/kg i.v. 28 days, peptide 10 mg/kg s.c. daily for 14 days beginning at day 15, FIG. 2)
1 | CC[C@]1(O)C[C@H]2CN(CCc3c([nH]c4ccccc34)[C@@](C(=O)OC)(c3cc4c(cc3OC)N(C=O)[C@H]3[C@@](O)(C(=O)OC)[C@H](OC(C)=O)[C@]5(CC)C=CCN6CC[C@]43[C@@H]65)C2)C1 [vincristine, reference compound] | continued to show a decline in pain thereshold, reaching a low point at day 21, and showed a moderate improvement beginning at day 22 | a decrease in pain threshold response compared to a vehicle-only control |  |  |  | 
2 | D-Arg-2′6′-dimethyltyrosine-Lys-Phe-NH2 |  |  | effective in the treatment of vincristine-induced hyperalgesia in rats | not significantly different from the vehicle-only control; also recorded: effective in the prevention of vincristine-induced hyperalgesia in rats | improved pain threshold as soon as day 15, with continued improvement through day 25 | an arrest of the downward trend in pain threshold evident in the initial 14 day period, followed by an improvement in pain threshold beginning at day 16
